Biological target: T1, hUXS (human UDP-α-D-xylose synthase) (Homo sapiens, UniProt Q8NBZ7)
T1 sequence (Q8NBZ7 85-420): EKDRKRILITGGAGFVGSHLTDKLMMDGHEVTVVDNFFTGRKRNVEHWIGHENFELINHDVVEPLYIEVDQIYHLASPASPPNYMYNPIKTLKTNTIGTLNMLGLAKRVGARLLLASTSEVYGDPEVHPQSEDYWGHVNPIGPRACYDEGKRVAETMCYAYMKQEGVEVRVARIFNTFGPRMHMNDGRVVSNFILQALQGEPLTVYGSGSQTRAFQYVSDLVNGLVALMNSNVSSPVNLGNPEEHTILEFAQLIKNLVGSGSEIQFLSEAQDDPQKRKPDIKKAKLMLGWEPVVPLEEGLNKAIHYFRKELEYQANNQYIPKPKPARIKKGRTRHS
Experiment: X-ray crystal structure, […] Å
Type: binding
Conditions: copurified NAD+ bound, open conformation, no nucleotide sugar

NC(=O)c1ccc[n+]([C@@H]2O[C@H](COP(=O)(O)OP(=O)(O)OC[C@H]3O[C@@H](n4cnc5c(N)ncnc54)[C@H](O)[C@@H]3O)[C@@H](O)[C@H]2O)c1 [NAD^+]
X-ray crystal structure, 2.5 Å: Recombinant hUXS crystallizes with the copurified NAD^+ cofactor bound
